Laboratory results as given in US10526316B2, “Quinoxaline and pyridopyrazine derivatives as PI3Kβ inhibitors” (Janssen Pharmaceutica NV, priority 2015, dated 2020).
Like-named read-outs stand apart in the source and are kept apart here.

Experiments:
[1] = target: T1, PI3Kβ (Homo sapiens, UniProt P42338); assay: Enzyme binding assay (KINOMEscan, DiscoveRx); settings: PIK3Cβ_h, read-out: Kd PIK3Cβ_h
T1 construct: purchased DiscoveRx Corporation, San Diego (contract service, KINOMEscan)
Method in brief: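 Kinase binding affinities were measured with KINOMEscan technology. Results are given as Kd, the inhibitor binding constant, in nM.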

[2] = target: T2, PI3Kδ (Homo sapiens, UniProt O00329); assay: Enzyme binding assay (KINOMEscan, DiscoveRx); settings: PIK3Cδ_h
T2 construct: purchased DiscoveRx Corporation, San Diego (contract service, KINOMEscan)
T2 sequence (O00329 1-1044): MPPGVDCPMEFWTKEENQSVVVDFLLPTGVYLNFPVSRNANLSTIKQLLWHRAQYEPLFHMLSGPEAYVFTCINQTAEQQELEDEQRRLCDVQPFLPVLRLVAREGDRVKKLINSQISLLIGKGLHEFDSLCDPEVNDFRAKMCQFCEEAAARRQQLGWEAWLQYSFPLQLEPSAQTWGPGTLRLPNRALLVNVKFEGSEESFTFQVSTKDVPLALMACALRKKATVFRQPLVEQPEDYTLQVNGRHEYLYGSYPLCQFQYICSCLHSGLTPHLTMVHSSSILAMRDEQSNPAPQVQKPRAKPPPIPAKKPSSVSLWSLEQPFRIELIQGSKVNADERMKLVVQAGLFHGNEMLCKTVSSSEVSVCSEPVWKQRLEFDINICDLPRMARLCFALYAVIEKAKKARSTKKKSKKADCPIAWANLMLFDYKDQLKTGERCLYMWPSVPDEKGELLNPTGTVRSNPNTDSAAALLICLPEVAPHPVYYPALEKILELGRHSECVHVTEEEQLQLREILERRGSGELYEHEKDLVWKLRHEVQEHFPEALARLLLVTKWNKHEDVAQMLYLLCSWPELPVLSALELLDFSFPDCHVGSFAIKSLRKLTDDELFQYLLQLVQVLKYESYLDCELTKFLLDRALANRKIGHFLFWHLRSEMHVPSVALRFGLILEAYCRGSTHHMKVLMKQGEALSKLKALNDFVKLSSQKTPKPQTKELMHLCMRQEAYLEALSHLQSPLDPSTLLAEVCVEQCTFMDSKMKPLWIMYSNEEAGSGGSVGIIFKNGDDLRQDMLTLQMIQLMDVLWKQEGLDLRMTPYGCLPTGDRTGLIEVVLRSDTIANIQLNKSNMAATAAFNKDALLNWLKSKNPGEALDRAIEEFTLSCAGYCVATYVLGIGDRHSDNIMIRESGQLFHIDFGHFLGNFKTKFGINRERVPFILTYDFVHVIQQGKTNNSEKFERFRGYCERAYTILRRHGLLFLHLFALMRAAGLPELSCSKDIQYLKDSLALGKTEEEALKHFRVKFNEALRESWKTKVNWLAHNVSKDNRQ
Method in brief: (§1)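 Binding affinities were measured on the KINOMEscan platform.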

[3] = target: T3, kinase enzymes (Homo sapiens, UniProt P42336); assay: Enzyme binding assay (KINOMEscan, DiscoveRx), further kinases of Table A; settings: PIK3Cα_h
T3 construct: purchased DiscoveRx Corporation, San Diego (contract service, KINOMEscan)
Method in brief: as §1

[4] = target: T4, kinase enzymes (Homo sapiens, UniProt P42345); assay: as above; settings: MTOR_h
T4 construct: purchased DiscoveRx Corporation, San Diego (contract service, KINOMEscan)
Method in brief: as §1

[5] = target: T5, kinase enzymes (Homo sapiens, UniProt P48736); assay: as above; settings: PIK3Cγ_h
T5 construct: purchased DiscoveRx Corporation, San Diego (contract service, KINOMEscan)
Method in brief: as §1

[6] = test system: Akt phosphorylated at Ser473 in PC-3 cells; assay: Cellular assay: phosphorylation of Akt at Ser473 in PC-3 cells (MSD ELISA); assay type: cell-based; settings: PC-3 cells, 60 min compound incubation, MSD ELISA, read-out: IC50 pAkt_S473
Method in brief: (§2)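 Compound treatment of PC-3 cells lasted 60 min at 37° C (0.3% DMSO). Lysates were then applied to plates carrying capture antibodies for the relevant phospho-site, and bound Akt was detected with an electrochemiluminescent anti-total Akt antibody; IC50s derive from five-point curves.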

[7] = test system: Akt phosphorylated at Thr308 in PC-3 cells; assay: Cellular assay: phosphorylation of Akt at Thr308 in PC-3 cells (MSD ELISA); assay type: cell-based; settings: PC-3 cells, 60 min compound incubation, MSD ELISA, read-out: IC50 pAkt_Thr308
Method in brief: as §2

T1 sequence (P42338 whole entry): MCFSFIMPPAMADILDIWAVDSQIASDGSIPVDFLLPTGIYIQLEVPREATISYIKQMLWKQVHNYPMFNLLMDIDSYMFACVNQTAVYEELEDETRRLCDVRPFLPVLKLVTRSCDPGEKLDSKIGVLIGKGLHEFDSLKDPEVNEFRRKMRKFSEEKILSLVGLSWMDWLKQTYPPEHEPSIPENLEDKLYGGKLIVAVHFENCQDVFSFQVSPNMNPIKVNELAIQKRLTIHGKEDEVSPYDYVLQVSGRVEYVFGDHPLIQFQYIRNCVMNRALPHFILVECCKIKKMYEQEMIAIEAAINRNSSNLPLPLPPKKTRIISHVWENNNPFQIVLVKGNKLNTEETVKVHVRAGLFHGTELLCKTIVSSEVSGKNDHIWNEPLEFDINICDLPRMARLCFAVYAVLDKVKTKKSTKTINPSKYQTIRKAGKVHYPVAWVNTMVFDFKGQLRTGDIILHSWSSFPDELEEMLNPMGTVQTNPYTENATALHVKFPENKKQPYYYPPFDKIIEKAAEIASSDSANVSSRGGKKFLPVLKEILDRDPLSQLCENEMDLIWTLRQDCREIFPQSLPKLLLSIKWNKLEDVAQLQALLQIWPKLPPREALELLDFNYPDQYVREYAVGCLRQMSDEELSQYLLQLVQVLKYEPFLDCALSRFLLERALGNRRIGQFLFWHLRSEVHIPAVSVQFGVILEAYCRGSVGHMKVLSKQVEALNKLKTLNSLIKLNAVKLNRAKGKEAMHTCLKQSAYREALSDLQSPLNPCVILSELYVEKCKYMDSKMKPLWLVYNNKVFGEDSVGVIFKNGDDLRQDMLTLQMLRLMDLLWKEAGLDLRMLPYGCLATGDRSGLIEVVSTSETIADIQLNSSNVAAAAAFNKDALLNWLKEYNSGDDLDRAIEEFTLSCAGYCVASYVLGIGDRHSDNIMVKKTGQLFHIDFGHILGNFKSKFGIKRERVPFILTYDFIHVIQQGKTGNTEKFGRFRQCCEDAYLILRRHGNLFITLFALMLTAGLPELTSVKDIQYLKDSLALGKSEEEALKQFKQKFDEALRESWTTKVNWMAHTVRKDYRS
T5 sequence (P48736 whole entry): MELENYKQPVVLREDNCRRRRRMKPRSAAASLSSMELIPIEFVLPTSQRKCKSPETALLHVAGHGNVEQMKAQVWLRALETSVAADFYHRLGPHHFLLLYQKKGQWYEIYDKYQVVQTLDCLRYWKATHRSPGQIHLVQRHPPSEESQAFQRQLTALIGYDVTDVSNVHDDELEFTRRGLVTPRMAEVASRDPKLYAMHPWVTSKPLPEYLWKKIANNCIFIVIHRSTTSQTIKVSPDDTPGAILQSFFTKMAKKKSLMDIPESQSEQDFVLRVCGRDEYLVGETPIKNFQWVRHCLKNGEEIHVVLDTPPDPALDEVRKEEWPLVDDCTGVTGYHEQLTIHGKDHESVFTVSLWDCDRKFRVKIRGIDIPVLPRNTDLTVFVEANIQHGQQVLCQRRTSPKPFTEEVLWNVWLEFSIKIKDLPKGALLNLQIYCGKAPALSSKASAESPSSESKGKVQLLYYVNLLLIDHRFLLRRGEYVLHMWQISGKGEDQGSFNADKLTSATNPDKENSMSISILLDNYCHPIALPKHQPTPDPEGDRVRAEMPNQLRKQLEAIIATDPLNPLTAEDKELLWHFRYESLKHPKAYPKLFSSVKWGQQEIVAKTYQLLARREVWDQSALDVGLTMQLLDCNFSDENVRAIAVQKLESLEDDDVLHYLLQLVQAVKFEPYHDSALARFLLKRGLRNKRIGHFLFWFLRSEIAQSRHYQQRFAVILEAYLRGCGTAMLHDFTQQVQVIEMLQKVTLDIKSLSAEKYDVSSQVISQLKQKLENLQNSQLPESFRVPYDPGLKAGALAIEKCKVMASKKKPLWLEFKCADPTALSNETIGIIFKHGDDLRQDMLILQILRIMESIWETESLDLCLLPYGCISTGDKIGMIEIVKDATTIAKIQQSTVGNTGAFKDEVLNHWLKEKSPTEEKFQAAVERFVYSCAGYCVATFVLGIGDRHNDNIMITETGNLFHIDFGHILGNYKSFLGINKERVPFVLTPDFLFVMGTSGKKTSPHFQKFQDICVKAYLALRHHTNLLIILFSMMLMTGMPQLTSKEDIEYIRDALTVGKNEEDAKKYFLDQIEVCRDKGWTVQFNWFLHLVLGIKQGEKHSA
T3 sequence (P42336 whole entry): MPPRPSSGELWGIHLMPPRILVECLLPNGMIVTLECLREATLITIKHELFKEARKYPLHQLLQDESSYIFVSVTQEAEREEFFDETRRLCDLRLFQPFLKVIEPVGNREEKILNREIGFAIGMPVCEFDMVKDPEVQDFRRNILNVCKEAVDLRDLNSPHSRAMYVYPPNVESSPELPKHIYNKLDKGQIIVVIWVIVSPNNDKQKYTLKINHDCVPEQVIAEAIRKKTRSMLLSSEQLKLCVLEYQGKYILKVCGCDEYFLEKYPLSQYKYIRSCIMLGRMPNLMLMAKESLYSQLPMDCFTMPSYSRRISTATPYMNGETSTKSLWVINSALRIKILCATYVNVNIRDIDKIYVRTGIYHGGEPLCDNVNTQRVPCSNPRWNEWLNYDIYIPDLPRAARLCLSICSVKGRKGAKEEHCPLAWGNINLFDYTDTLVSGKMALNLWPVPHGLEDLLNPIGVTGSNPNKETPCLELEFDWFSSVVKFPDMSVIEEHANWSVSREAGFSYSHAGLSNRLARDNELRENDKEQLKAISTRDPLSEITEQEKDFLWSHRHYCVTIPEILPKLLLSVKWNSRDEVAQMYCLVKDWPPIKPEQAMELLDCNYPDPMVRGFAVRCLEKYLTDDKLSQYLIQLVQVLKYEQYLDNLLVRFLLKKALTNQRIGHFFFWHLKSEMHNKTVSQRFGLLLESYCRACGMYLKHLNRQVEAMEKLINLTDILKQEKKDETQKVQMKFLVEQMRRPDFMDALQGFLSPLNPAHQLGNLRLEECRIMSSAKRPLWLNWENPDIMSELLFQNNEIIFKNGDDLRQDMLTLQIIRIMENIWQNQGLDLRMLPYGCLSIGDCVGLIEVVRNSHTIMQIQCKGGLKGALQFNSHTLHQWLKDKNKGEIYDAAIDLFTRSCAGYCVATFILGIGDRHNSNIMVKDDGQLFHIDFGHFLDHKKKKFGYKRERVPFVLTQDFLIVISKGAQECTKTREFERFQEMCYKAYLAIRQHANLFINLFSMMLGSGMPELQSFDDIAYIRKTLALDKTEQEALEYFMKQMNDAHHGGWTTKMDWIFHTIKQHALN

Question: With `CC(Nc1cc(F)cc(F)c1)c1cc(C(=O)O)cc2ncc(N3CCOCC3)nc12` (stereo not drawn) [Compound 83a] as the compound, how does the Kd [1] read?
Answer: Its Kd is 2 nM.

Question: What about the Kd [2] of the same compound?
Answer: The Kd was 158 nM.

Question: And the Kd [3]?
Answer: The Kd was 112 nM.

Question: What about the Kd [4] of the same compound?
Answer: Its Kd is 1320 nM.

Question: What about the Kd [5] of the same compound?
Answer: The Kd was 813 nM.

Question: And the IC50 [6]?
Answer: The IC50 was > 513 nM.

Question: What about the IC50 [7] of the same compound?
Answer: Its IC50 is > 513 nM.

Question: And the melting point?
Answer: Its melting point is 240 °C.

Question: For `CC(Nc1cc(F)cc(F)c1)c1cc(CO)cc2ncc(N3CCOCC3)nc12` (stereo not drawn) [Compound 84], which Kd [1] is on record?
Answer: The Kd was 1 nM.

Question: And the Kd [2]?
Answer: The Kd was 96 nM.

Question: And the Kd [3]?
Answer: The Kd was 692 nM.

Question: What about the Kd [4] of the same compound?
Answer: Its Kd is 8510 nM.

Question: What about the Kd [5] of the same compound?
Answer: Its Kd is 1290 nM.

Question: What about the IC50 ([6]; Homo sapiens, PC-3, 1 h) of the same compound?
Answer: The IC50 was 56 nM.

Question: What about the IC50 ([7]; Homo sapiens, PC-3, 1 h) of the same compound?
Answer: The IC50 was 32 nM.

Question: And the melting point?
Answer: The melting point was 80 °C.

Question: Which Kd [1] does the source give for `NCc1cc(C2CCCN2c2cc(F)cc(F)c2)c2nc(N3CCOCC3)cnc2c1` (stereo not drawn) [Compound 96] here?
Answer: The Kd was 0.4 nM.

Question: And the Kd [2]?
Answer: Its Kd is 83 nM.

Question: And the Kd [3]?
Answer: Its Kd is 363 nM.

Question: And the Kd [4]?
Answer: The Kd was 17400 nM.

Question: And the Kd [5]?
Answer: The Kd was 302 nM.

Question: And the IC50 ([6]; Homo sapiens, PC-3, 1 h)?
Answer: Its IC50 is 25 nM.

Question: And the IC50 ([7]; Homo sapiens, PC-3, 1 h)?
Answer: The IC50 was 20 nM.

Question: And the melting point?
Answer: Its melting point is 80 °C.

Question: What does the source list for `COC(=O)c1cc(C(C)N(C)c2cccc(F)c2)c2nc(N3CCOCC3)cnc2c1` (stereo not drawn) [Compound 97]?
Answer: Kd [1]: 214 nM; Kd [2]: > 30200 nM; Kd [3]: 19100 nM; Kd [4]: > 30200 nM; Kd [5]: > 30200 nM; IC50 ([6]; Homo sapiens, PC-3, 1 h): > 513 nM; IC50 ([7]; Homo sapiens, PC-3, 1 h): > 513 nM; melting point: 146 °C

Question: With `CC(c1cc(C(=O)O)cc2ncc(N3CCOCC3)nc12)N(C)c1cccc(F)c1` (stereo not drawn) [Compound 98] as the compound, how does the Kd [1] read?
Answer: Its Kd is 47 nM.

Question: And the Kd [2]?
Answer: The Kd was 955 nM.

Question: And the Kd [3]?
Answer: The Kd was 479 nM.

Question: And the Kd [4]?
Answer: The Kd was 2240 nM.

Question: What about the Kd [5] of the same compound?
Answer: The Kd was 437 nM.

Question: And the IC50 ([6]; Homo sapiens, PC-3, 1 h)?
Answer: Its IC50 is > 513 nM.

Question: And the IC50 ([7]; Homo sapiens, PC-3, 1 h)?
Answer: Its IC50 is > 513 nM.

Question: What about the melting point of the same compound?
Answer: Its melting point is 240 °C.

Question: What does the source list for `CN(CCO)Cc1cc(C2CCCN2c2cc(F)cc(F)c2)c2nc(N3CCOCC3)cnc2c1` (stereo not drawn) [Compound 101]?
Answer: Kd [1]: 0.4 nM; Kd [2]: 40 nM; Kd [3]: 263 nM; Kd [4]: > 30200 nM; Kd [5]: 398 nM; IC50 ([6]; Homo sapiens, PC-3, 1 h): 21 nM; IC50 ([7]; Homo sapiens, PC-3, 1 h): 14 nM; melting point: 80 °C

Question: For `COCCNCc1cc(C2CCCN2c2cc(F)cc(F)c2)c2nc(N3CCOCC3)cnc2c1` (stereo not drawn) [Compound 103], which Kd [1] is on record?
Answer: The Kd was 3 nM.

Question: And the Kd [2]?
Answer: Its Kd is 1000 nM.

Question: And the Kd [3]?
Answer: The Kd was 1130 nM.

Question: And the Kd [4]?
Answer: Its Kd is 24500 nM.

Question: And the Kd [5]?
Answer: The Kd was 3000 nM.

Question: What about the IC50 ([6]; Homo sapiens, PC-3, 1 h) of the same compound?
Answer: Its IC50 is 65 nM.

Question: What about the IC50 ([7]; Homo sapiens, PC-3, 1 h) of the same compound?
Answer: Its IC50 is 28 nM.

Question: What about the melting point of the same compound?
Answer: Its melting point is 80 °C.

Question: What does the source list for `CC(Nc1cccc(F)c1)c1cc(C(=O)N2CCOCC2)cc2ncc(N3CCOCC3)nc12` (stereo not drawn) [Compound 104]?
Answer: Kd [1]: 3 nM; Kd [2]: 263 nM; Kd [3]: 1350 nM; Kd [4]: > 30200 nM; Kd [5]: 17800 nM; IC50 ([6]; Homo sapiens, PC-3, 1 h): 110 nM; IC50 ([7]; Homo sapiens, PC-3, 1 h): 55 nM; melting point: 80 °C

Question: With `CC(c1cc(C(=O)N2CCOCC2)cc2ncc(N3CCOCC3)nc12)N(C)c1cccc(F)c1` (stereo not drawn) [Compound 105] as the compound, how does the Kd [1] read?
Answer: Its Kd is 8 nM.

Question: What about the Kd [2] of the same compound?
Answer: The Kd was 871 nM.

Question: And the Kd [3]?
Answer: Its Kd is 3890 nM.

Question: And the Kd [4]?
Answer: Its Kd is > 30200 nM.

Question: And the Kd [5]?
Answer: The Kd was 28200 nM.

Question: And the IC50 ([6]; Homo sapiens, PC-3, 1 h)?
Answer: Its IC50 is 302 nM.

Question: And the IC50 ([7]; Homo sapiens, PC-3, 1 h)?
Answer: The IC50 was 138 nM.

Question: And the melting point?
Answer: The melting point was 161 °C.

Question: What does the source list for `COCCN(C)Cc1cc(C2CCCN2c2cc(F)cc(F)c2)c2nc(N3CCOCC3)cnc2c1` (stereo not drawn) [Compound 112]?
Answer: Kd [1]: 1 nM; Kd [2]: 204 nM; Kd [3]: 955 nM; Kd [4]: > 30200 nM; Kd [5]: 2400 nM; IC50 ([6]; Homo sapiens, PC-3, 1 h): 174 nM; IC50 ([7]; Homo sapiens, PC-3, 1 h): ~62 nM; melting point: 80 °C

Question: With `CC(Nc1cccc(Cl)c1)c1cc(C(=O)N2CCOCC2)cc2ncc(N3CCOCC3)nc12` (stereo not drawn) [Compound 119] as the compound, how does the Kd [1] read?
Answer: The Kd was 2 nM.

Question: And the Kd [2]?
Answer: Its Kd is 490 nM.

Question: And the Kd [3]?
Answer: The Kd was 2240 nM.

Question: What about the Kd [4] of the same compound?
Answer: The Kd was > 30200 nM.

Question: What about the Kd [5] of the same compound?
Answer: The Kd was 11700 nM.

Question: And the IC50 ([6]; Homo sapiens, PC-3, 1 h)?
Answer: Its IC50 is 105 nM.

Question: What about the IC50 ([7]; Homo sapiens, PC-3, 1 h) of the same compound?
Answer: The IC50 was 81 nM.

Question: And the melting point?
Answer: The melting point was 80 °C.

Question: Which Kd [1] does the source give for `Cc1cccc(NC(C)c2cc(C(=O)N3CCOCC3)cc3ncc(N4CCOCC4)nc23)c1` (stereo not drawn) [Compound 120] here?
Answer: The Kd was 14 nM.

Question: And the Kd [2]?
Answer: Its Kd is 2190 nM.

Question: What about the Kd [3] of the same compound?
Answer: Its Kd is 6760 nM.

Question: What about the Kd [4] of the same compound?
Answer: The Kd was > 30200 nM.

Question: And the Kd [5]?
Answer: Its Kd is > 30200 nM.

Question: And the IC50 ([6]; Homo sapiens, PC-3, 1 h)?
Answer: The IC50 was 479 nM.

Question: And the IC50 ([7]; Homo sapiens, PC-3, 1 h)?
Answer: The IC50 was 269 nM.

Question: And the melting point?
Answer: Its melting point is 80 °C.
